Experimental data: ChEMBL document CHEMBL1133250, “Antitumor promoting activities of 3-O-acyl-(-)epigallocatechins” (2000)

Assays:
Assay type in all cases: functional
Human gammaherpesvirus 4 [1] = assay: In vitro assay for EBV activation in Raji cells induced by 12-O-tetradecanoylphorbol-13-acetate (TPA) at the concentration of 10 (mol ratio / 32 pmol TPA)
Human gammaherpesvirus 4 [2] = assay: In vitro assay for EBV activation in Raji cells induced by 12-O-tetradecanoylphorbol-13-acetate (TPA) at the concentration of 100 (mol ratio / 32 pmol TPA)
Human gammaherpesvirus 4 [3] = assay: In vitro assay for EBV activation in Raji cells induced by 12-O-tetradecanoylphorbol-13-acetate (TPA) at the concentration of 1000 (mol ratio / 32 pmol TPA)
Human gammaherpesvirus 4 [4] = assay: In vitro assay for EBV activation in Raji cells induced by 12-O-tetradecanoylphorbol-13-acetate (TPA) at the concentration of 500 (mol ratio / 32 pmol TPA); (%Viability=>80)
Human gammaherpesvirus 4 [5] = assay: Tested for % viability of Rajii cells, in an in vitro assay for TPA-induced EBV activation at concentration of 10 (mol ratio / 32 pmol TPA)
Human gammaherpesvirus 4 [6] = assay: Tested for % viability of Rajii cells, in an in vitro assay for TPA-induced EBV activation at concentration of 100 (mol ratio / 32 pmol TPA)
Human gammaherpesvirus 4 [7] = assay: Tested for % viability of Rajii cells, in an in vitro assay for TPA-induced EBV activation at concentration of 1000 (mol ratio / 32 pmol TPA)
Human gammaherpesvirus 4 [8] = assay: Tested for % viability of Rajii cells, in an in vitro assay for TPA-induced EBV activation at concentration of 500 (mol ratio / 32 pmol TPA)

SMILES	Activation (Human gammaherpesvirus 4 [1]) [%]	Activation (Human gammaherpesvirus 4 [2]) [%]	Activation (Human gammaherpesvirus 4 [3]) [%]	Activation (Human gammaherpesvirus 4 [4]) [%]	Viability (Human gammaherpesvirus 4 [5]) [%]	Viability (Human gammaherpesvirus 4 [6]) [%]	Viability (Human gammaherpesvirus 4 [7]) [%]	Viability (Human gammaherpesvirus 4 [8]) [%]
CCCC(=O)O[C@@H]1Cc2c(O)cc(O)cc2O[C@@H]1c1cc(O)c(O)c(O)c1	>94.5	>65.1	13.3	>33.8	>80	>80	60	>80
CCCCCC(=O)O[C@@H]1Cc2c(O)cc(O)cc2O[C@@H]1c1cc(O)c(O)c(O)c1	>93.5	>62.4	12	>30.8	>80	>80	60	>80
O=C(Cc1ccccc1)O[C@@H]1Cc2c(O)cc(O)cc2O[C@@H]1c1cc(O)c(O)c(O)c1	>96.3	>67.8	15.4	>37.9	>80	>80	60	>80
CCc1ccc(C(=O)O[C@@H]2Cc3c(O)cc(O)cc3O[C@@H]2c2cc(O)c(O)c(O)c2)cc1	>93.4	>64.3	13.2	>35.4	>80	>80	60	>80
CCCCCCC(C)C(=O)O[C@@H]1Cc2c(O)cc(O)cc2O[C@@H]1c1cc(O)c(O)c(O)c1 (stereo partly specified)	>87.5	>54.1	5	>15.3	>80	>80	60	>80
O=C(CCc1ccccc1)O[C@@H]1Cc2c(O)cc(O)cc2O[C@@H]1c1cc(O)c(O)c(O)c1	>96.5	>68.4	17.8	>39	>80	>80	60	>80
CCCCCCCCC(C)C(=O)O[C@@H]1Cc2c(O)cc(O)cc2O[C@@H]1c1cc(O)c(O)c(O)c1 (stereo partly specified)	>88.9	>58.3	7.9	>20.1	>80	>80	60	>80
CCCCCCCCCCCCCCCC(=O)O[C@@H]1Cc2c(O)cc(O)cc2O[C@@H]1c1cc(O)c(O)c(O)c1	>100	>74.3	22.7	>41.6	>80	>80	60	>80
Cc1ccc(CC(=O)O[C@@H]2Cc3c(O)cc(O)cc3O[C@@H]2c2cc(O)c(O)c(O)c2)cc1	>95.4	>65.9	14	>35.3	>80	>80	60	>80
CCCCCCCC(=O)O[C@@H]1Cc2c(O)cc(O)cc2O[C@@H]1c1cc(O)c(O)c(O)c1	>89.2	>56	6.5	>19.3	>80	>80	60	>80
CCCCCCCCCCCCCC(=O)O[C@@H]1Cc2c(O)cc(O)cc2O[C@@H]1c1cc(O)c(O)c(O)c1	>100	>68.4	18.3	>35.2	>80	>80	60	>80
CCCCCCCCCCCCCCCCCC(=O)O[C@@H]1Cc2c(O)cc(O)cc2O[C@@H]1c1cc(O)c(O)c(O)c1	>100	>86.9	31.5	>64	>80	>80	60	>80
CCCCCCCCCC(=O)O[C@@H]1Cc2c(O)cc(O)cc2O[C@@H]1c1cc(O)c(O)c(O)c1	>91.9	>61.4	9.3	>22.7	>80	>80	60	>80
CCCCCCCCCCCC(=O)O[C@@H]1Cc2c(O)cc(O)cc2O[C@@H]1c1cc(O)c(O)c(O)c1	>94.2	>65.8	12.7	>31.9	>80	>80	60	>80
Cc1ccc(C(=O)O[C@@H]2Cc3c(O)cc(O)cc3O[C@@H]2c2cc(O)c(O)c(O)c2)cc1	>91.7	>62.8	10.4	>33	>80	>80	60	>80
Oc1cc(O)c2c(c1)O[C@H](c1cc(O)c(O)c(O)c1)[C@H](O)C2 [EPIGALLOCATECHIN]	>100	>73	19.3	>44.9	>80	>80	60	>80
O=C(O[C@@H]1Cc2c(O)cc(O)cc2O[C@@H]1c1cc(O)c(O)c(O)c1)c1cc(O)c(O)c(O)c1 [EPIGALOCATECHIN GALLATE]	>95.9	>69	15.5	>35	>80	>80	60	>80
